Assays:
[1] = Stability of nucleic acid transporter inhibitor in solution (acetate buffer pH 3, HPLC); assay type: physicochemical; settings: for residual ratio of the compound (%): acetate buffer pH 3, 10^−5 M, 25 °C, 20 hours after
Protocol: Stability of Nucleic Acid Transporter Inhibitor in Solution
0.02 mL of comparative compound or compound (1) methanol solution at the concentration of 10^−3 M was added to the 1.98 mL of acetate buffer, pH 3 (final concentration of 10^−5 M). The solutions were incubated at 25 °C, and the reaction solutions were collected at 2, 4 and 20 hours later. Each obtained 0.5 mL of reaction solutions were neutralized and adjusted to 1 mL, and 0.01 mL of 10^−3 M methanol solutions of 4-hydroxy were spiked as internal standard substrate. The solutions were measured by HPLC according to the measurement condition shown as follows, and the ratio (IS ratio) compared the amount of internal standard substrate with the amount of compounds was calculated. The remaining rate of test compounds were obtained to compare the IS ratio with IS ratio of pre-incubation according to the method described above.
HPLC Analytical Condition • column: Inertsil ODS-2 (φ4.6×150 mm) • Mobile phase: 20 mM phosphate buffer (pH 6)/CH3CN=7/3 (w/w) • Detection absorbance: 250 nm • Flow rate: 1 mL/min • Injection volume: 0.02 mL • Time span of measurement: 20 min

absorption of adenosine = test: Inhibition of absorption of orally given [3H]-adenosine in rats (serum radioactivity); assay type: in vivo; settings: male SD rats, oral; for ED50: Rattus norvegicus, 50% inhibitory dose on absorption of adenosine, from regression line; for ED50 value (in words): inhibition on absorption of adenosine
Protocol: Four weeks old male SD rats (Charles river japan corporation) were purchased and the animals over 1 weeks quarantine were used. Body weight of the rats fasted 24 hours from last day were measured and grouped used grouping soft (Stat light #11, Yukums corporation). Test compound and [^3H]-adenosine solution (4 μCi/mL) were given orally at the volume of 2 mL/kg, and about 500 μL of blood were obtained from retro orbital vein. The blood was centrifuged at 3000 rpm for 10 min, and 13 μL of H2O2 solution were added to the 100 μL of resulted serum and placed for 10 min. And 5 mL of liquid scintilation cocktail added and mixed enough, and radio activity was measured using liquid scintillation counter. Inhibitory rate was calculated according to the formula described as follow, and the regression line was obtained from inhibitory rate and its log dose. The 50% inhibitory dose of the compound (ED50) at the inhibition on absorption of adenosine was calculated used regression line formula The results were shown in Table 2.
Inhibitory ratio={1−radio activity of the serum obtained from rats treated with test compound (dpm)/radio activity of the serum obtained from rats treated with vehicle (dpm)}×100

human CNT2 = target: T1, human CNT2 (Homo sapiens, UniProt O43868); test: Inhibitory activity against uptake of adenosine through human CNT2; assay type: cell-based; settings: human CNT2 transiently expressing cells, 14C-adenosine 10 μM, 30 minutes at 37° C., NBMPR 10 μM
T1 construct: expressed in transfected cells
T1 sequence (O43868 1-658): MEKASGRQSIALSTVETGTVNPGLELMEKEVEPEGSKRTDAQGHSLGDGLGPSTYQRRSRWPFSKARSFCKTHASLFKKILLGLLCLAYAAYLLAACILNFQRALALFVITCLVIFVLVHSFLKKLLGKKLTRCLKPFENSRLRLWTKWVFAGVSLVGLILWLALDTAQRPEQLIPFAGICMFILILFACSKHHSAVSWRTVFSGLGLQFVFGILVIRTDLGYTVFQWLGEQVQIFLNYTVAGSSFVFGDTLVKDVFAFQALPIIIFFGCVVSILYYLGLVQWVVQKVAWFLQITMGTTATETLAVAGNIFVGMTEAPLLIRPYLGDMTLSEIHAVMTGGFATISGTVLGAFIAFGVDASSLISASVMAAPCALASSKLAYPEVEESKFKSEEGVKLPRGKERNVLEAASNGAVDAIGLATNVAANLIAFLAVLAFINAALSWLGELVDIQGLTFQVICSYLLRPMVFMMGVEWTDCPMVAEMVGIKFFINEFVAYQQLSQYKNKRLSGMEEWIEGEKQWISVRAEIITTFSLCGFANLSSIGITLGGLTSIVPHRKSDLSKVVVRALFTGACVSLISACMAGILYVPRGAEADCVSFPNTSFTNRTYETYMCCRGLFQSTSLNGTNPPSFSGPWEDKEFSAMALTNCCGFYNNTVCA
Protocol: Measurement of Inhibitory Activity Against Uptake of Adenosine Through Human CNT2
An Uptake buffer was prepared by addition of a mixture of non-radioisotope labeled (Sigma) and ^14C-labeled (GE Healthcare) adenosine at the final concentration of 10 μM into a buffer, pH 7.4, containing 140 mM sodium chloride, 2 mM potassium chloride, 1 mM calcium chloride, 1 mM magnesium chloride, 10 mM HEPES
2-[4-(2-hydroxyethyl)-1-piperazinyl]thane sulfonic acid, 5 mM tris(hydroxymethyl)aminomethane and 5 mM glucose. For measurement of basal uptake, Basal uptake measurement buffer, which contained 140 mM choline chloride instead of sodium chloride was prepared. In uptake assays, NBMPR was added to Uptake buffer and Basal uptake measurement buffer at the final concentration of 10 μM. In the case of measurement of inhibitory activity of test compounds, test compounds were dissolved in dimethyl sulfoxide, and then appropriately diluted with Uptake buffer as to Measurement buffers. After removing culture medium of human CNT2 transiently expressing cells, Pretreatment buffer (Basal uptake measurement buffer without adenosine and glucose) was added to wells at 500 μL/well and incubated at 37° C. for 10 minutes. After repeating the same step again, Pretreatment buffer was removed and Measurement buffers and Basal uptake measurement buffer were added at 300 μL/well and incubated at 37° C. After incubation for 30 minutes, Measurement buffers and Basal uptake measurement buffer were removed, and the cells were washed with Washing buffer (Basal uptake measurement buffer with non-radioisotope labeled adenosine at 10 μM) at 500 μL/well twice. The cells were solubilized with 0.5 mol/L sodium hydroxide at 200 μL/well, and the cell lysates were transferred into glass vials at 100 μL. After mixing with 5 mL of ACS-II (GE Healthcare Bioscience), radioactivity was measured by means of scintillation counter (Aloka). One hundred % was set to the difference between the uptake in the control group and the basal uptake, and the uptake of adenosine at each test compound concentration was calculated. The test compound concentration inhibiting 50% uptake of adenosine (IC50 value) was calculated using regression line. […] The IC50 value was expressed as A; 1˜10 nM, B; 10˜100 nM or not less than 100 nM;

Row | Structure (SMILES) | residual ratio of the compound (%) [1] [%] | Stability in pH3 solution (in words) ([1]; pH3 solution, versus comparative compound) | ED50 (absorption of adenosine) [mg/kg] | ED50 value (in words) (absorption of adenosine) | IC50 (human CNT2) [nM]
1 | N#Cc1c(NCc2ccc(-c3ccccc3)cc2)n(C2O[C@H](CO)[C@@H](O)[C@H]2O)c2ncnc(N)c12 (stereo partly drawn) [Comparative compound, reference compound] | 45.0 |  |  |  | 
2 | C[C@@]1(O)[C@H](O)[C@@H](CO)O[C@H]1n1c(NCc2ccc(-c3ccccc3)cc2)c(C#N)c2c(N)ncnc21 [Compound (1), 4-Amino-6-[(biphenyl-4-ylmethyl)-amino]-7-(3,4-dihydroxy-5-hydroxymethyl-3-methyl-tetrahydro-furan-2-yl)-7H-pyrrolo[2,3-d]pyrimidine-5-carbonitrile] | 85.0 | better than that of comparative compound | 1.3 | high ED50 value | ≥ 100
3 | CCOC(=O)CCCCOc1cc(CNc2c(C#N)c3c(N)ncnc3n2C2O[C@H](CO)[C@@H](O)[C@@]2(C)O)ccc1-c1ccccc1 (stereo partly drawn) [Compound (2), 5-(4-{[4-Amino-5-cyano-7-(3,4-dihydroxy-5-hydroxymethyl-3-methyl-tetrahydrofuran-2-yl)-7H-pyrrolo[2,3-d]pyrimidin-6-ylamino]-methyl}-biphenyl-2-yloxy)-pentanoic acid ethyl ester] |  |  | 1.4 | high ED50 value | 10 to 100
4 | C[C@]1(O)C(n2c(NCc3ccc(-c4ccccc4)c(OCCCCCl)c3)c(C#N)c3c(N)ncnc32)O[C@H](CO)[C@H]1O (stereo partly drawn) [Compound (3), 4-Amino-6-{[2-(4-chloro-butoxy)-biphenyl-4-ylmethyl]-amino}-7-(3,4-dihydroxy-5-hydroxymethyl-3-methyl-tetrahydro-furan-2-yl)-7H-pyrrolo[2,3-d]pyrimidine-5-carbonitrile] |  |  | 1.1 | high ED50 value | 10 to 100
5 | C[C@]1(O)C(n2c(NCc3ccc(-c4ccccc4)c(OCCCCN4CCOCC4)c3)c(C#N)c3c(N)ncnc32)O[C@H](CO)[C@H]1O (stereo partly drawn) [Compound (4), 4-Amino-7-(3,4-dihydroxy-5-hydroxymethyl-3-methyl-tetrahydro-furan-2-yl)-6-{[2-(4-morpholin-4-yl-butoxy)-biphenyl-4-ylmethyl]-amino}-7H-pyrrolo[2,3-d]pyrimidine-5-carbonitrile] |  |  | 0.51 | high ED50 value | 10 to 100
6 | CC(C)(C)[Si](C)(C)OCCCCOc1cc(CNc2c(C#N)c3c(N)ncnc3n2C2O[C@H](CO)[C@@H](O)[C@@]2(C)O)ccc1-c1ccccc1 (stereo partly drawn) [Compound (5), 4-Amino-6-({2-[4-(tert-butyl-dimethyl-silanyloxy)-butoxy]-biphenyl-4-ylmeth-yl}-amino)-7-(3,4-dihydroxy-5-hydroxymethyl-3-methyl-tetrahydro-furan-2-yl)-7H-pyrrolo[2,3-d]pyrimidine-5-carbonitrile] |  |  |  |  | ≥ 100
7 | C[C@]1(O)C(n2c(NCc3ccc(-c4ccccc4)c(OCCCCN4CCCCC4)c3)c(C#N)c3c(N)ncnc32)O[C@H](CO)[C@H]1O (stereo partly drawn) [Compound (6), 4-Amino-7-(3,4-dihydroxy-5-hydroxymethyl-3-methyl-tetrahydro-furan-2-yl)-6-{[2-(4-piperidin-1-yl-butoxy)-biphenyl-4-ylmethyl]-amino}-7H-pyrrolo[2,3-d]pyrimidine-5-carbonitrile] |  |  |  |  | 10 to 100
8 | CN(C)C(=O)CCCCOc1cc(CNc2c(C#N)c3c(N)ncnc3n2C2O[C@H](CO)[C@@H](O)[C@@]2(C)O)ccc1-c1ccccc1 (stereo partly drawn) [Compound (7), 5-(4-{[4-Amino-5-cyano-7-(3,4-dihydroxy-5-hydroxymethyl-3-methyltetrahydrofuran-2-yl)-7H-pyrrolo[2,3-d]pyrimidin-6-ylamino]-methyl}-biphenyl-2-yloxy)-pentanoic acid dimethylamide] |  |  | 3 | high ED50 value | 1 to 10
9 | C[C@]1(O)C(n2c(NCc3ccc(-c4ccccc4)c(OCCCCO)c3)c(C#N)c3c(N)ncnc32)O[C@H](CO)[C@H]1O (stereo partly drawn) [Compound (8), 4-Amino-7-(3,4-dihydroxy-5-hydroxymethyl-3-methyl-tetrahydro-furan-2-yl)-6-{[2-(4-hydroxy-butoxy)-biphenyl-4-ylmethyl]-amino}-7H-pyrrolo[2,3-d]pyrimidine-5-carbonitrile] |  |  | 0.78 | high ED50 value | 1 to 10
10 | CCOC(=O)CCCCOc1cc(CNc2c(C#N)c3c(O)ncnc3n2C2O[C@H](CO)[C@@H](O)[C@@]2(C)O)ccc1-c1ccccc1 (stereo partly drawn) [Compound (9), 5-(4-{[5-Cyano-7-(3,4-dihydroxy-5-hydroxymethyl-3-methyltetrahydro-furan-2-yl)-4-hydroxy-7H-pyrrolo[2,3-d]pyrimidin-6-ylamino]methyl}-biphenyl-2-yloxy)-pentanoic acid ethyl ester] |  |  |  |  | ≥ 100

From patent US20110171192A1, “SUBSTITUTED AMINE DERIVATIVE AND MEDICINAL COMPOSITION COMPRISING SAME AS THE ACTIVE INGREDIENT” (priority 2008, published 2011)
